Measurements reported in patent US8216595B2 (priority 2007, dated 2012).
Read-outs that look alike come from different tables or passages of the source.

Assays:
Settings in all cases: mouse, in vivo
preS antigen [1] = system: preS antigen; parameters: species or system C57BL/6 female mice
HBsAg = system: HBsAg
preS antigen [2] = system: preS antigen; parameters: species or system C57BL/6 female mice; remark: listed apart in the source
HBsAg (S-protein) [3] = system: HBsAg (S-protein); parameters: species or system C57BL/6 female mice
HBsAg (S-protein) [4] = system: HBsAg (S-protein); parameters: species or system C57BL/6 female mice; remark: listed apart in the source
HA antigen = system: HA antigen; parameters: species or system C57BL/6 female mice

| Compound | preS antibody titer (preS antigen [1]) | IgG2a/IgG1 (%) (HBsAg) | IgG2b/IgG1 (%) (HBsAg) | preS antibody titer (preS antigen [2]) | HBsAg antibody titer (HBsAg (S-protein) [3]) | IgG2a/IgG1 (%) (HBsAg (S-protein) [4]) | IgG2b/IgG1 (%) (HBsAg (S-protein) [4]) | HA antibody titer (HA antigen) |
| --- | --- | --- | --- | --- | --- | --- | --- | --- |
| CCCCCCCCCCCCCCCC(=O)N[C@@H](CSC[C@@H](COC(=O)CCCCCCCCCCCCCCC)OC(=O)CCCCCCCCCCCCCCC)C(=O)N[C@@H](CO)C(=O)N[C@@H](CCCCN)C(=O)N[C@@H](CCCCN)C(=O)N[C@@H](CCCCN)C(=O)N[C@@H](CCCCN)C(=O)O (racemic) [Pam3Cys-SKKKK, N-palmitoyl-S-[2,3-bis(palmitoyloxy)-(2RS)-propyl]-[R]-cystein-SKKKK] | 6.2 × 10^5 | 17.4% | 159.4% | 1.3 × 10^5 | 6.5 × 10^5 | 8.9% | 153.9% | 6.8 × 10^5 |
| FSL-1 | – | 9.3% | 122.5% | 1.4 × 10^5 | 4.4 × 10^5 | – | – | – |
| polyinosinic:polycytidylic acid [Poly I:C] | 6.5 × 10^5 | 8.04% | 89.05% | 2.3 × 10^5 | 6.3 × 10^5 | 9.1% | 66.4% | 8.6 × 10^5 |
